Experimental data from ChEMBL document CHEMBL5360573, “Discovery of novel tryptamine derivatives as GluN2B subunit-containing NMDA receptor antagonists via pharmacophore-merging strategy with orally available therapeutic effect of cerebral ischemia” (Eur J Med Chem, 2023).

Legend:
Assay type in all cases: functional
Settings in all cases: time 6.5 hrs, read-out: Activity
SH-SY5Y [1] = experiment: Neuroprotective activity against NMDA-induced cell injury in human SH-SY5Y cells assessed as cell viability at 0.5 uM incubated for 6 hrs followed by NMDA treatment for 0.5 hrs and subsequent replacement of fresh medium without compounds by MTT assay relative to control
SH-SY5Y [2] = experiment: Neuroprotective activity against NMDA-induced cell injury in human SH-SY5Y cells assessed as cell viability at 5 uM incubated for 6 hrs followed by NMDA treatment for 0.5 hrs and subsequent replacement of fresh medium without compounds by MTT assay relative to control
SH-SY5Y [3] = experiment: Neuroprotective activity against NMDA-induced cell injury in human SH-SY5Y cells assessed as cell viability at 0.05 uM incubated for 6 hrs followed by NMDA treatment for 0.5 hrs and subsequent replacement of fresh medium without compounds by MTT assay relative to control

Structure (SMILES) | viability at 0.5 µM (SH-SY5Y [1]) [%] | viability at 5 µM (SH-SY5Y [2]) [%] | viability at 0.05 µM (SH-SY5Y [3]) [%]
O=C(/C=C/c1ccc(O)cc1)NCCc1cn(Cc2ccc(Br)cc2)c2ccccc12 | 36.1 | 25.5 | 42.6
CC(C)Cn1cc(CCNC(=O)/C=C/c2ccc(O)cc2)c2ccccc21 | 15.7 | 14.4 | 24.9
O=C(CCc1ccc(O)cc1)NCCc1cn(Cc2ccccc2)c2ccccc12 | 50.9 | 52.1 | 45.3
O=C(/C=C/c1ccc(O)c(O)c1)NCCc1cn(Cc2ccccc2)c2ccccc12 | 47.1 | 48.2 | 34.8
O=C(Cc1ccc(O)cc1)NCCc1cn(Cc2ccccc2)c2ccccc12 | 42.2 | 41 | 21.1
O=C(/C=C/c1ccc(O)cc1)NCCc1cn(Cc2ccccc2Cl)c2ccccc12 | 10.1 | 5.9 | 13.6
COc1ccc(Cn2cc(CCNC(=O)/C=C/c3ccc(O)cc3)c3ccccc32)cc1 | 24.8 | 30.9 | 18.6
CCCn1cc(CCNC(=O)/C=C/c2ccc(O)cc2)c2ccccc21 | 13.5 | 25.1 | 17.6
O=C(/C=C/c1ccc(O)cc1)NCCc1cn(Cc2ccccc2)c2ccccc12 | 42.8 | 52.8 | 33
Cc1ccc(Cn2cc(CCNC(=O)/C=C/c3ccc(O)cc3)c3ccccc32)cc1 | 28.4 | 21 | 19.4
O=C(NCCc1cn(Cc2ccccc2)c2ccccc12)c1ccc(O)c(O)c1 | 32.1 | 44.9 | 29.4
O=C(/C=C/c1ccc(O)cc1)NCCc1cn(CC2CC2)c2ccccc12 | 18.6 | 9.7 | 19.9
O=C(/C=C/c1ccc(O)cc1)NCCc1cn(Cc2ccc(Cl)cc2)c2ccccc12 | 22.5 | 21.7 | 31.9
